Results: paper PMC10257182, “Discovery of senolytics using machine learning” (Nature Communications, 2023)
Like-named read-outs stand apart in the source and are kept apart here.

Tests used:
Format in all cases: cell-based, human
[1] = tested on: non-senescent control A549 cells; assay: Nuclei count senolytic assay, TIS model, non-senescent control cells; settings: Homo sapiens, A549, Control cells, mean, read-out: Mean % Cell Survival
Procedure, shortened: (§1)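 A549 cells made senescent with 100 μM etoposide for 48 h then 3 days in normal media; non-senescent A549 as control. Cells were exposed for 72 h to a 10-point […] range (10 μM–10 nM) in triplicate, then fixed, Hoechst-stained and imaged for nuclei count.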

[2] = tested on: non-senescent control IMR90 ER:RAS cells; assay: Nuclei count (Hoechst, high content imaging) senolytic assay, OIS model, non-senescent control cells; settings: Homo sapiens
Procedure, shortened: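 Compared non-senescent and senescent IMR90 ER:RAS cultures (senescence induced with 4-OHT at 100 nM final); cells seeded 24 h before dosing, then exposed 72 h to compounds, 10-point […] range 10 μM–10 nM, triplicate. Fixed, Hoechst-stained, nuclei counted by high-content imaging; drop versus untreated reflects cell death.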

[3] = tested on: senescent A549 cells (etoposide-induced); assay: Nuclei count senolytic assay, therapy-induced senescence (TIS) model, senescent cells; settings: Homo sapiens, A549, Senescent cells, mean, read-out: Mean % Cell Survival
Procedure, shortened: as §1

SMILES: O=c1cc(-c2ccc(O)cc2)oc2cc(O)c(O)c(O)c12 [Scutellarein, scutellarein]
- viability at 10 µM ([1]; log (dose) [M] -5): 111%
- viability at 4.68 µM ([1]; log (dose) [M] -5.33): 112%
- viability at 2.19 µM ([1]; log (dose) [M] -5.66): 105%
- viability at 1 µM ([1]; log (dose) [M] -6): 108%
- viability at 0.468 µM ([1]; log (dose) [M] -6.33): 102%
- viability at 0.219 µM ([1]; log (dose) [M] -6.66): 109%
- viability at 0.1 µM ([1]; log (dose) [M] -7): 102%
- viability at 0.0468 µM ([1]; log (dose) [M] -7.33): 99.3%
- viability at 0.0219 µM ([1]; log (dose) [M] -7.66): 98.3%
- viability at 0.01 µM ([1]; log (dose) [M] -8): 99.7%
- viability at 10 µM ([2]; IMR-90, 72 h, Control, log (dose) [M] -5, 72 h, mean n=3 (Fig 3C), read-out: Mean % Cell Survival): 97.3%
- viability at 4.677 µM ([2]; IMR-90, 72 h, Control, log (dose) [M] -5.33, 72 h, mean n=3 (Fig 3C), read-out: Mean % Cell Survival): 95.7%
- viability at 2.188 µM ([2]; IMR-90, 72 h, Control, log (dose) [M] -5.66, 72 h, mean n=3 (Fig 3C), read-out: Mean % Cell Survival): 88.9%
- viability at 1 µM ([2]; IMR-90, 72 h, Control, log (dose) [M] -6, 72 h, mean n=3 (Fig 3C), read-out: Mean % Cell Survival): 88.2%
- viability at 0.4677 µM ([2]; IMR-90, 72 h, Control, log (dose) [M] -6.33, 72 h, mean n=3 (Fig 3C), read-out: Mean % Cell Survival): 95.4%
- viability at 0.2188 µM ([2]; IMR-90, 72 h, Control, log (dose) [M] -6.66, 72 h, mean n=3 (Fig 3C), read-out: Mean % Cell Survival): 109%
- viability at 0.1 µM ([2]; IMR-90, 72 h, Control, log (dose) [M] -7, 72 h, mean n=3 (Fig 3C), read-out: Mean % Cell Survival): 118%
- viability at 0.04677 µM ([2]; IMR-90, 72 h, Control, log (dose) [M] -7.33, 72 h, mean n=3 (Fig 3C), read-out: Mean % Cell Survival): 130%
- viability at 0.02188 µM ([2]; IMR-90, 72 h, Control, log (dose) [M] -7.66, 72 h, mean n=3 (Fig 3C), read-out: Mean % Cell Survival): 117%
- viability at 0.01 µM ([2]; IMR-90, 72 h, Control, log (dose) [M] -8, 72 h, mean n=3 (Fig 3C), read-out: Mean % Cell Survival): 121%
- viability at 10 µM ([2]; IMR-90, Control, log (dose) [M] -5, read-out: % Cell Survival): 112%
- viability at 4.68 µM ([2]; IMR-90, Control, log (dose) [M] -5.33, read-out: % Cell Survival): 101%
- viability at 2.19 µM ([2]; IMR-90, Control, log (dose) [M] -5.66, read-out: % Cell Survival): 102%
- viability at 1 µM ([2]; IMR-90, Control, log (dose) [M] -6, read-out: % Cell Survival): 108%
- viability at 0.468 µM ([2]; IMR-90, Control, log (dose) [M] -6.33, read-out: % Cell Survival): 101%
- viability at 0.219 µM ([2]; IMR-90, Control, log (dose) [M] -6.66, read-out: % Cell Survival): 107%
- viability at 0.1 µM ([2]; IMR-90, Control, log (dose) [M] -7, read-out: % Cell Survival): 107%
- viability at 0.04677 µM ([2]; IMR-90, Control, log (dose) [M] -7.33, read-out: % Cell Survival): 102%
- viability at 0.0219 µM ([2]; IMR-90, Control, log (dose) [M] -7.66, read-out: % Cell Survival): 99.8%
- viability at 0.01 µM ([2]; IMR-90, Control, log (dose) [M] -8, read-out: % Cell Survival): 107%
- viability at 10 µM ([3]; log (dose) [M] -5): 108%
- viability at 4.68 µM ([3]; log (dose) [M] -5.33): 104%
- viability at 2.19 µM ([3]; log (dose) [M] -5.66): 105%
- viability at 1 µM ([3]; log (dose) [M] -6): 135%
- viability at 0.468 µM ([3]; log (dose) [M] -6.33): 106%
- viability at 0.219 µM ([3]; log (dose) [M] -6.66): 103%
- viability at 0.1 µM ([3]; log (dose) [M] -7): 81.8%
- viability at 0.0468 µM ([3]; log (dose) [M] -7.33): 88.6%
- viability at 0.0219 µM ([3]; log (dose) [M] -7.66): 97.4%
- viability at 0.01 µM ([3]; log (dose) [M] -8): 91.3%
